Patent US20110158980A1, “METHODS TO TREAT AND SCREEN FOR AGENTS TO TREAT OBESITY” (TRUSTEES OF TUFTS COLLEGE, priority 2008, published 2011)

Experiments:
3T3-L1 adipocytes [1] = assay: Amino acid uptake or output of adipocytes (HPLC of spent medium); type: cell-based; conditions: 20 mM OXA; day 12 post-induction; positive value = uptake
Method: (§1) 3T3-L1 preadipocytes were plated onto 24-well plates and expanded in preadipocyte growth medium consisting of DMEM supplemented with calf serum (10% v/v), penicillin and streptomycin. Medium was replenished every other day. Two days post-confluence, the cells were induced to differentiate using an adipogenic cocktail (1 μg/ml insulin, 0.5 mM isobutylmethylxanthine, and 1 μM dexamethasone) added to a basal medium (DMEM with 10% fetal bovine serum and penicillin/streptomycin). After 48 hrs, the first medium was replaced with a second induction medium consisting of the basal adipocyte medium supplemented with only insulin. […] This basal medium was replenished every other day during the remainder of the culture experiments.
Metabolite measurements were performed both on cell lysates and spent medium samples as described previously (Si Y, Yoon J, Lee K. American journal of physiology 2007; 292:E1637-46). Cells were lysed in situ with an 0.1% SDS buffer and sonicated. Immediately after collection, the spent medium samples were cleaned of cell debris by a brief centrifugation step. Free glycerol, TG and free fatty acids (FFAs) were measured using enzymatic assay kits (SIGMA™). Glucose and lactate concentrations were measured using the methods of Trinder (Trinder P. J Clin Pathol 1969; 22:158-61) and Loomis (Loomis M E. J Lab Clin Med 1961; 57:966-9), respectively. Amino acids were quantified by HPLC using fluorescence-based detection following pre-column derivatization of primary or secondary amines with 6-aminoquinolyl-N-hydroxysuccinimidyl-carbamate (Cohen S A, De Antonis K M. J Chromatogr A 1994; 661:25-34). All metabolite data were normalized by the corresponding cell sample DNA content, which was determined with a fluorescence-based assay using the Hoechst dye.

3T3-L1 adipocytes [2] = assay: Metabolic flux analysis (stoichiometric model) of adipocyte intermediary metabolism; type: cell-based; conditions: OXA 20 mM; day 12 post-induction
Method: as §1
A stoichiometric model of adipocyte central carbon metabolism was constructed as described previously (Si Y, Yoon J, Lee K. American journal of physiology 2007; 292:E1637-46). The model consisted of the major pathways of central carbon metabolism (Table 1). Intracellular fluxes were estimated by solving a constrained non-linear optimization problem with stoichiometric and thermodynamic constraints (Nolan R P, Fenley A P, Lee K. Metab Eng 2006; 8:30-45).

In the case of `NC(=O)C(=O)O` [oxamate], the “ALA uptake or output” value (3T3-L1 adipocytes [1]) is reported as 0.6 ± 0.0 mmol/g-DNA/2 days, the “ASN uptake or output” value (3T3-L1 adipocytes [1]) is reported as −1.1 ± 0.2 mmol/g-DNA/2 days and the “ASP uptake or output” value (3T3-L1 adipocytes [1]) is reported as 0.0 ± 0.0 mmol/g-DNA/2 days. The “GLN uptake or output” value (3T3-L1 adipocytes [1]) was −12.0 ± 1.5 mmol/g-DNA/2 days, the “GLU uptake or output” value (3T3-L1 adipocytes [1]) was 0.4 ± 0.0 mmol/g-DNA/2 days and the “GLY uptake or output” value (3T3-L1 adipocytes [1]) was −5.9 ± 0.4 mmol/g-DNA/2 days. For the same compound, the “HIS uptake or output” value (3T3-L1 adipocytes [1]) was −0.2 ± 0.1 mmol/g-DNA/2 days, the “ILE uptake or output” value (3T3-L1 adipocytes [1]) was 6.1 ± 0.3 mmol/g-DNA/2 days and the “LEU uptake or output” value (3T3-L1 adipocytes [1]) was 6.8 ± 0.3 mmol/g-DNA/2 days. For the same compound, the “LYS uptake or output” value (3T3-L1 adipocytes [1]) was −2.0 ± 0.3 mmol/g-DNA/2 days, the “MET uptake or output” value (3T3-L1 adipocytes [1]) was 0.0 ± 0.0 mmol/g-DNA/2 days and the “PHE uptake or output” value (3T3-L1 adipocytes [1]) was −0.3 ± 0.1 mmol/g-DNA/2 days. The “PRO uptake or output” value (3T3-L1 adipocytes [1]) was −0.5 ± 0.0^ mmol/g-DNA/2 days, the “SER uptake or output” value (3T3-L1 adipocytes [1]) was 4.0 ± 0.2 mmol/g-DNA/2 days and the “THR uptake or output” value (3T3-L1 adipocytes [1]) was −1.4 ± 0.3^ mmol/g-DNA/2 days. For the same compound, the “TYR uptake or output” value (3T3-L1 adipocytes [1]) was −0.3 ± 0.1 mmol/g-DNA/2 days, the “VAL uptake or output” value (3T3-L1 adipocytes [1]) was 3.3 ± 0.2 mmol/g-DNA/2 days and the “Flux RXN 1 Glycolysis: Glucose + ATP = Glucose 6-P + ADP” value (3T3-L1 adipocytes [2]) was 212.3 ± 15.3 mmol/g-DNA/2 days. The “Flux RXN 2 Glycolysis: Glucose 6-P = Fructose 6-P” value (3T3-L1 adipocytes [2]) was 205.0 ± 14.2 mmol/g-DNA/2 days, the “Flux RXN 3 Glycolysis: Fructose 6-P + ATP = Glyceraldehyde 3-P + Glycerone-P + ADP” value (3T3-L1 adipocytes [2]) was 209.9 ± 14.8 mmol/g-DNA/2 days and the “Flux RXN 4 Glycolysis: Glycerone-P = Glyceraldehyde 3-P” value (3T3-L1 adipocytes [2]) was 187.8 ± 13.9 mmol/g-DNA/2 days. For the same compound, the “Flux RXN 5 Glycolysis: Glyceraldehyde 3-P + NAD+ + ADP + Pi = P-Enolpyruvate + ATP + H2O” value (3T3-L1 adipocytes [2]) was 400.1 ± 28.6 mmol/g-DNA/2 days, the “Flux RXN 6 Glycolysis: P-Enolpyruvate + ADP + H+ = Pyruvate + ATP” value (3T3-L1 adipocytes [2]) was 463.5 ± 35.6 mmol/g-DNA/2 days and the “Flux RXN 7 Glycolysis: Pyruvate + NADH + H+ = Lactate + NAD+” value (3T3-L1 adipocytes [2]) was 119.2 ± 9.1 mmol/g-DNA/2 days. The “Flux RXN 8 Pentose phosphate pathway: Glucose 6-P + 2 NADP+ + H2O = Ribulose 5-P + CO2 + 2 NADPH + 2 H+” value (3T3-L1 adipocytes [2]) was 7.3 ± 4.6 mmol/g-DNA/2 days, the “Flux RXN 9 Pentose phosphate pathway: 3 Ribulose 5-P = 2 Fructose 6-P + Glyceraldehyde 3-P” value (3T3-L1 adipocytes [2]) was 2.4 ± 1.5 mmol/g-DNA/2 days and the “Flux RXN 10 TCA cycle (mitochondria) (PDC)” value (3T3-L1 adipocytes [2]) was 290.4 ± 25.6 mmol/g-DNA/2 days. The “Flux RXN 11 TCA cycle (mitochondria) (PC)” value (3T3-L1 adipocytes [2]) was 109.1 ± 31.7 mmol/g-DNA/2 days, the “Flux RXN 12 TCA cycle (mitochondria)” value (3T3-L1 adipocytes [2]) was 185.0 ± 19.7 mmol/g-DNA/2 days and the “Flux RXN 13 TCA cycle (mitochondria)” value (3T3-L1 adipocytes [2]) was 226.7 ± 26.2 mmol/g-DNA/2 days. For the same compound, the “Flux RXN 14 TCA cycle (mitochondria)” value (3T3-L1 adipocytes [2]) was 236.0 ± 26.3 mmol/g-DNA/2 days, the “Flux RXN 15 TCA cycle (mitochondria)” value (3T3-L1 adipocytes [2]) was 236.0 ± 26.3 mmol/g-DNA/2 days and the “Flux RXN 16 TCA cycle (mitochondria)” value (3T3-L1 adipocytes [2]) was 181.2 ± 40.8 mmol/g-DNA/2 days. For the same compound, the “Flux RXN 17 TCA cycle: Citrate + CoA + ATP = Acetyl-CoA + Oxaloacetate + ADP + Pi” value (3T3-L1 adipocytes [2]) was 63.7 ± 12.9 mmol/g-DNA/2 days, the “Flux RXN 18 TCA cycle: Oxaloacetate + NADH + H+ = Malate + NAD+” value (3T3-L1 adipocytes [2]) was 0.3 ± 0.8 mmol/g-DNA/2 days and the “Flux RXN 19 TCA cycle: Malate + NADP+ = Pyruvate + CO2 + NADPH” value (3T3-L1 adipocytes [2]) was 55.2 ± 20.8 mmol/g-DNA/2 days. For the same compound, the “Flux RXN 20 TCA cycle: Citrate + NADP+ = 2-Oxoglutarate + CO2 + NADPH + H+” value (3T3-L1 adipocytes [2]) was 41.6 ± 9.1 mmol/g-DNA/2 days, the “Flux RXN 21 TCA cycle: Oxaloacetate + ATP = P-Enolpyruvate + CO2 + ADP” value (3T3-L1 adipocytes [2]) was 63.4 ± 12.9 mmol/g-DNA/2 days and the “Flux RXN 22 Oxidative phosphorylation (NADH + 0.5 O2)” value (3T3-L1 adipocytes [2]) was 770.4 ± 108.2 mmol/g-DNA/2 days. The “Flux RXN 23 Oxidative phosphorylation (FADH2 + 0.5 O2)” value (3T3-L1 adipocytes [2]) was 252.2 ± 26.4 mmol/g-DNA/2 days, the “Flux RXN 24 Palmitate biosynthesis” value (3T3-L1 adipocytes [2]) was 8.0 ± 1.6 mmol/g-DNA/2 days and the “Flux RXN 25 Tripalmitoylglycerol biosynthesis: Glycerone-P + 3 Palmitate to Tripalmitoylglycerol” value (3T3-L1 adipocytes [2]) was 22.1 ± 4.8 mmol/g-DNA/2 days. The “Flux RXN 26 Tripalmitoylglycerol + 3 H2O = Glycerol + 3 Palmitate” value (3T3-L1 adipocytes [2]) was 19.8 ± 4.4 mmol/g-DNA/2 days, the “Flux RXN 27 Tripalmitoylglycerol accumulation” value (3T3-L1 adipocytes [2]) was 2.3 ± 0.5 mmol/g-DNA/2 days and the “Flux RXN 28 Metabolism of ketone bodies” value (3T3-L1 adipocytes [2]) was 6.4 ± 0.3 mmol/g-DNA/2 days. For the same compound, the “Flux RXN 29 Metabolism of ketone bodies” value (3T3-L1 adipocytes [2]) was 0.0 ± 0.0 mmol/g-DNA/2 days and the “Flux RXN 30 Metabolism of ketone bodies (to 3-Hydroxybutyrate)” value (3T3-L1 adipocytes [2]) was 10.8 ± 2.2 mmol/g-DNA/2 days.
